{"source": "patent US7612067B2", "about": "“Imidazopyridazine compounds” (Eli Lilly and Company, priority 2005, dated 2009)", "key": {"[1]": {"conditions": "single intravenous dose, comparison CRF antagonists with literature references; cited from earlier work"}, "[2]": {"assay": "Volume of distribution after single intravenous dose", "format": "in vivo, rat", "conditions": "male Sprague Dawley rats, single 3 mg/kg intravenous dose", "procedure": "The volume of distribution (Vdist) relates the amount of the drug in the body to the concentration of the drug in the blood or plasma. The volume of distribution refers to the fluid volume that would be required to contain the total amount of the drug in the body at the same concentration as in the blood or plasma: Vdist=amount of drug in the body/concentration of drug in blood or plasma (Goodman and Gillman's). For a 10 mg dose and a plasma concentration of 10 mg/L, the volume of distribution would be 1 liter. The volume of distribution reflects the extent to which the drug is present in the extravascular tissue. A large volume of distribution reflects the tendency of a compound to bind to the tissue components compared with plasma protein binding. In a clinical setting, Vdist can be used to determine a loading dose achieve a steady state concentration.\nTo test for volume of distribution, Male Sprague Dawley rats (N=3) are administered a single 3 mg/kg intravenous dose of compound. Multiple plasma samples are collected at time points from 0.08 to 24 hours post-dose. The plasma samples are analyzed by LC/MS/MS to determine the plasma concentrations. Plasma pharmacokinetic calculations are performed to determine the pharmacokinetic parameters including Vdist and plasma clearance (Clp)."}, "human CRF1": {"molecular_target": "T1, human CRF1 (Homo sapiens, UniProt P34998)", "T1 construct": "expressed in transfected cells; membranes used", "T1 sequence (P34998 24-415)": "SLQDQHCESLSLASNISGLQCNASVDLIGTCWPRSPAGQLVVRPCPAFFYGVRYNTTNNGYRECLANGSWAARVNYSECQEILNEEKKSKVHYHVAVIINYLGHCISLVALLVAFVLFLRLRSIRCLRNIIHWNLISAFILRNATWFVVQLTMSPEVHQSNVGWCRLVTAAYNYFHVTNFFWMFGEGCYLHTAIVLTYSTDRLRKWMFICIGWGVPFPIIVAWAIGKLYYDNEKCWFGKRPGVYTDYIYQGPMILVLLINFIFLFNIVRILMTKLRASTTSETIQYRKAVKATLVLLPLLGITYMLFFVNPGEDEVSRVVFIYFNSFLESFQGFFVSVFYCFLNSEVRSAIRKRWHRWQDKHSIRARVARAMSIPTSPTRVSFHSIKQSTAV", "assay": "CRF1 filter binding assay", "conditions": "HEK-hCRF1 membranes, 125I-sauvagine; read-out: Ki (inhibition constant)", "procedure": "The limitations of plasmid-based human CRF1 expression, in terms of generating a recombinant cell line with sufficient receptor density to develop a binding assay, are overcome by using a Phoenix retroviral expression system licensed from Stanford. The stable HEK-hCRF1 cell line is used to prepare membranes and binding reactions (200 μl) are set up as follows: 50 μl of ^125I-sauvagine (0.2 nM final), 50 μl compound and 100 μl CRF1 membrane (25 μg/reaction). The reactions are incubated at room temperature for 2 hours and then terminated by filtration through pre-treated FB Millipore glass fiber filter plates (96 well). The plates are wash twice with ice-cold assay buffer (50 mM tris, 12.5 mM NaCl, 1 mM EDTA, 10 mM MgCl2, 0.05% BSA, pH 7.2), air dried over night and counted with 100 μl Microscint 40 in a MicroBeta counter. Non-specific binding (NSB) is determined in the presence of 0.5 μM non-labeled sauvagine. Triplicate determinations are typically run and the median data points plotted by Graph Pad Prism."}, "human CRF2": {"molecular_target": "T2, human CRF2 (Homo sapiens, UniProt Q13324)", "T2 construct": "expressed in transfected cells; membranes used", "T2 sequence (Q13324 1-411)": "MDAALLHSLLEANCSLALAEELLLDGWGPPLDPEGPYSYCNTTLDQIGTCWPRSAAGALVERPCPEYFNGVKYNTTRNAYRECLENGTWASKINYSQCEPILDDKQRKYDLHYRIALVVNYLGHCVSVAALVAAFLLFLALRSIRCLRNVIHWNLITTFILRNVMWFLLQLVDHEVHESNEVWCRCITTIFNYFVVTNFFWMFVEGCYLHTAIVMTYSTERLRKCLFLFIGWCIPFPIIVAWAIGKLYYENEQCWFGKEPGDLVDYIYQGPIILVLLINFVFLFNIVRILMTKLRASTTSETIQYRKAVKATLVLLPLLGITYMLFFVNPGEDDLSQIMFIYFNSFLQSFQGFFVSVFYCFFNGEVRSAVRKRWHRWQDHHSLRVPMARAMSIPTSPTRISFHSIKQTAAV", "assay": "CRF2 filter binding assay", "conditions": "50 μM compound, HEK-hCRF2 membranes, 125I-sauvagine", "procedure": "The limitations of plasmid-based human CRF2 expression, in terms of generating a recombinant cell line with sufficient receptor density to develop a binding assay, are overcome by using a Phoenix retroviral expression system licensed from Stanford. The stable HEK-hCRF2 cell line is used to prepare membranes and binding reactions (200 μl) are set up as follows: 50 ul of ^125I-sauvagine (0.2 nM final concentration), 50 μl compound and 100 μl CRF2 membrane (25 μg/reaction). The reactions are incubated at room temperature for 2 hours and then terminated by filtration through pre-treated FB Millipore glass fiber filter plates (96 well). The plates are washed twice with ice-cold assay buffer (50 mM tris, 12.5 mM NaCl, 1 mM EDTA, 10 mM MgCl2, 0.05% BSA, pH 7.2), air dried over night and counted with 100 μl Microscint 40 in a MicroBeta counter. Non-specific binding (NSB) is determined in the presence of 0.5 μM non-labeled sauvagine. Alternatively, compounds are evaluated using a Scintillation Proximity assay. […] Bound radioactivity is assessed using a Wallac Trilux scintillation counter. Binding is assessed typically using triplicate determinations and the median data points plotted by Graph Pad Prism. […]"}, "[3]": {"molecular_target": "T3, binding of 125I-sauvagine to the cerebellum (Rattus norvegicus, UniProt P35353)", "T3 construct": "from tissue; host or cells: rat cerebellum", "T3 sequence (P35353 24-415)": "T1 sequence (P34998 24-415) with H6R, S9N, A13T, I16V, M153V, G163A, I209V, Y229H, H356R", "assay": "In vivo potency assessment using ex vivo binding", "conditions": "oral route, ex vivo 125I-sauvagine binding to cerebellum", "procedure": "To assess in vivo potency, a compound of the present invention is evaluated using ex vivo binding. Using the procedures as provided in D. R. Gehlert et al., EJP 509: 145-153 (2005), a compound is administered to a rat via the oral route."}}, "note": "Substitutions are numbered along the chain they refer to. Counter-ions that a name gives are not always drawn. Like-named read-outs stand apart in the source and are kept apart here."}
{"smiles": "CCCCN(CC)c1nc(C)nc2c1c(C)cn2-c1c(C)cc(C)cc1C", "note": "[CP154526]", "values": [{"measurement": "rat Vdist", "setting": "[1]", "value": 114, "unit": "L/kg"}]}
{"smiles": "CCC(CC)c1cc(C)nn2c(-c3sc(-c4ccc(F)cc4)cc3C)c(C)nc12", "note": "[Example 39, 8-(1-ethyl-propyl)-3-[5-(4-fluoro-phenyl)-3-methyl-thiophen-2-yl]-2,6-dimethyl-imidazo[1,2-b]pyridazine]", "values": [{"measurement": "rat Vdist", "setting": "[2]", "value": 17, "unit": "L/kg"}]}
{"smiles": "CCC(CC)c1cc(C)nn2c(-c3sc(-c4ncnn4C)nc3Br)c(C)nc12", "note": "[Example 48, 3-[4-bromo-2-(2-methyl-2H-[1,2,4]triazol-3-yl)-thiazol-5-yl]-8-(1-ethyl-propyl)-2,6-dimethyl-imidazo[1,2-b]pyridazine]", "values": [{"measurement": "rat Vdist", "setting": "[2]", "value": 9, "unit": "L/kg"}]}
{"smiles": "CCC(CC)c1cc(C)nn2c(-c3sc(-c4ncnn4C)cc3Cl)c(C)nc12", "note": "[Example 88, 3-[3-chloro-5-(2-methyl-2H-[1,2,4]triazol-3-yl)-thiophen-2-yl]-8-(1-ethyl-propyl)-2,6-dimethyl-imidazo[1,2-b]pyridazine]", "values": [{"measurement": "rat Vdist", "setting": "[2]", "value": 44, "unit": "L/kg"}]}
{"smiles": "CCC(CC)c1cc(C)nn2c(-c3sc(N4CCOCC4)nc3Cl)c(C)nc12", "note": "[Example 102, N-{4-chloro-5-[8-(1-ethyl-propyl)-2,6-dimethyl-imidazo[1,2-b]pyridazin-3-yl]-thiazol-2-yl}-morpholine, hydrochloride salt]", "values": [{"measurement": "Ki", "setting": "human CRF1", "value": "4.92 ± 0.57", "unit": "nM"}, {"measurement": "inhibition at 50 µM", "setting": "human CRF2; read-out: percent inhibition at 50 μM", "value": "9 ± 2.6", "unit": "%"}]}
{"smiles": "CCC(CC)c1cc(C)nn2c(-c3sc(N4CCOCC4)nc3Cl)c(C)nc12", "note": "[Example 199, N-{4-chloro-5-[8-(1-ethyl-propyl)-2,6-dimethyl-imidazo[1,2-b]pyridazin-3-yl]-thiazol-2-yl}-morpholine]", "values": [{"measurement": "rat Vdist", "setting": "[2]", "value": 2, "unit": "L/kg"}, {"measurement": "ED50", "setting": "[3]", "value": 1.3, "unit": "mg/kg"}, {"measurement": "Ki", "setting": "human CRF1", "value": "9.98 ± 0.72", "unit": "nM"}, {"measurement": "percent inhibition at 50 μM", "setting": "human CRF2", "value": "16.9±1.9", "unit": "%"}]}
{"smiles": "CCCN(CCC)c1cc(C)nc2c(-c3cnc(N(C)C)cc3C)c(C)nn12", "note": "[NBI30775]", "values": [{"measurement": "rat Vdist", "setting": "[1]", "value": 76, "unit": "L/kg"}]}
